Test results reported in patent US9453014B2, “Cyclic amide derivatives as inhibitors of 11-β-hydroxysteroid dehydrogenase and uses thereof” (CONNEXIOS LIFE SCIENCES PVT. LTD., priority 2011, dated 2016).
Structures can show the parent of a compound that is named as a salt.

Molecular target: T1, human full length HSD11 β 1 (Homo sapiens, UniProt P28845)
T1 construct: transient expression of human full length HSD11 β 1 expression vector; host or cells: CHO cells (transient transfection)
Assay: In Vitro HSD11β1 Inhibition Assay
Format: cell-based
Conditions: CHO cells transiently expressing human HSD11β1; 200 nM cortisone+500 uM NADPH overnight; cortisone to cortisol by LC/MS-MS; read-out: 11βHSD1 (IC50)
How it was run: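 CHO cells transiently transfected with human full-length HSD11β1 were re-seeded after 24 h and, 24 h later, incubated overnight with 200 nM cortisone plus 500 uM NADPH and inhibitor. Cortisone-to-cortisol conversion was measured by LC/MS-MS. IC50 from an 8-point log concentration–inhibition curve.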

T1 sequence (P28845 whole entry): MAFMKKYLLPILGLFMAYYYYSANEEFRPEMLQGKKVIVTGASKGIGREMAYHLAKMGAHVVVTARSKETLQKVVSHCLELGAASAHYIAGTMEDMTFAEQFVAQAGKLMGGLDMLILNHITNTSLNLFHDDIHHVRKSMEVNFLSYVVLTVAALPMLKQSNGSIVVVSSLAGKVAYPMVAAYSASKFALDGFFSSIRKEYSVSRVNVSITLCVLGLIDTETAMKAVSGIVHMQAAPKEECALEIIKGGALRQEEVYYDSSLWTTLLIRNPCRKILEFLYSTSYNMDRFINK

SMILES	IC50 [nM]
O=C(O)C1CCCC2C1CCCN2C(=O)CSc1c[nH]c2cccc(C3CC3)c12 (stereo not shown) [Compound 260, 1-{[(4-cyclopropyl-1H-indol-3-yl)sulfanyl]acetyl}decahydroquinoline-5-carboxylic acid]	> 250
CC(CC(=O)N1CCCC2C(C(=O)O)CCCC21)c1cn(C2CC2)c2cccc(Cl)c12 (stereo not shown) [Compound 261, 1-[3-(4-chloro-1-cyclopropyl-1H-indol-3-yl)butanoyl]decahydroquinoline-5-carboxylic acid]	200 to 250
CC(CC(=O)N1CCCC2C(C(=O)O)CCCC21)c1c[nH]c2cccc(-c3ncccc3F)c12 (stereo not shown) [Compound 262, 1-{3-[4-(3-fluoropyridin-2-yl)-1H-indol-3-yl]butanoyl}decahydroquinoline-5-carboxylic acid]	> 250
CC(CC(=O)N1CCCC2C(C(=O)O)CCCC21)c1cn(C)c2cccc(-c3ccc(F)o3)c12 (stereo not shown) [Compound 263, 1-{3-[4-(5-fluorofuran-2-yl)-1-methyl-1H-indol-3-yl]butanoyl}decahydroquinoline-5-carboxylic acid]	< 100
COc1cccc2[nH]cc(C(C)CC(=O)N3CCCC4C(C(=O)O)CCCC43)c12 (stereo not shown) [Compound 264, 1-[3-(4-methoxy-1H-indol-3-yl)butanoyl]decahydroquinoline-5-carboxylic acid]	> 250
O=C(O)C1CCCC2C1CCCN2C(=O)CC(O)(c1c[nH]c2ccccc12)C(F)(F)F (stereo not shown) [Compound 265, 1-[4,4,4-trifluoro-3-hydroxy-3-(1H-Indol-3-yl)butanoyl]-decahydroquinoline-5-carboxylic acid]	> 250
CCn1cc(C(C)CC(=O)N2CCCC3C(C(=O)O)CCCC32)c2c(Cl)cccc21 (stereo not shown) [Compound 266, 1-[3-(4-chloro-1-ethyl-1H-indol-3-yl)butanoyl]decahydroquinoline-5-carboxylic acid]	> 250
CC(C(=O)N1CCCC2C(C(=O)O)CCCC21)c1c[nH]c2cccc(C3CC3)c12 (stereo not shown) [Compound 267, 1-(2-(4-cyclopropyl-1H-indol-3-yl)propanoyl)decahydroquinoline-5-carboxylic acid]	> 250
Cn1nc(CCC(=O)N2CCCC3C(C(=O)O)CCCC32)c2c(C3CC3)cccc21 (stereo not shown) [Compound 268, 1-(3-(4-cyclopropyl-1-methyl-1H-indazol-3-yl)propanoyl) decahydroquinoline-5-carboxylic acid]	> 250
CC(C)(Sc1nc2ccccc2s1)C(=O)N1CCCC2CCCCC21 (stereo not shown) [Example 74, 2-(1,3-benzothiazol-2-ylsulfanyl)-2-methyl-1-(octahydroquinolin-1(2H)-yl)propan-1-one]	> 250
CC1CCC2CCCCC2N1C(=O)CCc1nc2ccccc2s1 (stereo not shown) [Example 76, 3-(1,3-benzothiazol-2-yl)-1-(2-methyloctahydroquinolin-1 (2H)-yl)propan-1-one]	> 250
COC(=O)C1CCN(C(=O)CCc2nc3ccccc3s2)C2CCCCC12 (stereo not shown) [Example 77, methyl 1-[3-(1,3-benzothiazol-2-yl)propanoyl]decahydroquinoline-4-carboxylate]	> 250
CC12CCCCC1N(C(=O)CCc1nc3ccccc3s1)CCC2 (stereo not shown) [Example 78, 3-(1,3-benzothiazol-2-yl)-1-(4a-methyloctahydroquinolin-1(2H)-yl)propan-1-one]	< 100
O=C(CCc1nc2ccccc2s1)N1CC2CCCCC2C1 (stereo not shown) [Example 82, 3-(1,3-benzothiazol-2-yl)-1-(octahydro-2H-isoindol-2-yl)propan-1-one]	> 250
CC1CC2CCCCC2N1C(=O)CCc1nc2ccccc2s1 (stereo not shown) [Example 83, 3-(1,3-benzothiazol-2-yl)-1-(2-methyloctahydro-1H-indol-1-yl)propan-1-one]	> 250
CC12CCCCC1N(C(=O)CCn1nnc3ccccc31)CCC2 (stereo not shown) [Example 90, 3-(1H-benzotriazol-1-yl)-1-(4a-methyloctahydroquinolin-1(2H)-yl)propan-1-one]	100 to 150
O=C(CCn1nnc2ccccc21)N1CCOC2CCCCC21 (stereo not shown) [Example 91, 3-(1H-benzotriazol-1-yl)-1-(octahydro-4H-1,4-benzoxazin-4-yl)propan-1-one]	> 250
CC(CC(=O)N1C(C)CCC2CCCCC21)c1c[nH]c2ccc(F)cc12 (stereo not shown) [Example 92, 3-(5-fluoro-1H-indol-3-yl)-1-(2-methyloctahydroquinolin-1(2H)-yl)butan-1-one]	100 to 150
COC(=O)C1CCN(C(=O)CC(c2c[nH]c3ccccc23)C(C)C)C2CCCCC12 (stereo not shown) [Example 101, methyl 1-[3-(1H-indol-3-yl)-4-methylpentanoyl]decahydroquinoline-4-carboxylate]	> 250
COC(=O)C1CCN(C(=O)CC(C)c2c[nH]c3ccccc23)C2CCCCC12 (stereo not shown) [Example 102, methyl 1-[3-(1H-indol-3-yl)butanoyl]decahydroquinoline-4-carboxylate]	> 250
CC(CC(=O)N1CCC(=O)C2CCCCC21)c1c[nH]c2ccccc12 (stereo not shown) [Example 103, 1-[3-(1H-indol-3-yl)butanoyl]octahydroquinolin-4(1H)-one]	> 250
CC(C)C(CC(=O)N1CCC(=O)C2CCCCC21)c1c[nH]c2ccccc12 (stereo not shown) [Example 104, 1-[3-(1H-indol-3-yl)-4-methylpentanoyl]octahydroquinolin-4(1H)-one]	> 250
CC(C)C(CC(=O)N1CCC(C(=O)O)C2CCCCC21)c1c[nH]c2ccccc12 (stereo not shown) [Example 105, 1-[3-(1H-indol-3-yl)-4-methylpentanoyl]decahydroquinoline-4-carboxylic acid]	> 250
CC(CC(=O)N1CCC(O)C2CCCCC21)c1c[nH]c2ccccc12 (stereo not shown) [Example 106, 1-(4-hydroxyoctahydroquinolin-1(2H)-yl)-3-(1H-indol-3-yl)butan-1-one]	> 250
CC(C)C(CC(=O)N1CCC(C(=O)O)C2CCCCC21)c1c[nH]c2ccccc12 (stereo not shown) [Example 107, 1-[3-(1H-indol-3-yl)-4-methylpentanoyl]decahydroquinoline-4-carboxylic acid sodium salt]	> 250

Now from value to molecule:

IC50 [nM]	SMILES
< 100	O=C(CCc1nc2ccccc2s1)N1CCCC2CCCCC21 (stereo not shown) [Example 75, 3-(1,3-benzothiazol-2-yl)-1-(octahydroquinolin-1(2H)-yl)propan-1-one]
> 250	O=C(CCc1nc2ccccc2s1)N1CCOC2CCCCC21 (stereo not shown) [Example 80, 3-(1,3-benzothiazol-2-yl)-1-(octahydro-4H-1,4-benzoxazin-4-yl)propan-1-one]
< 100	O=C(CCc1nc2ccccc2s1)N1CCC2CCCCC21 (stereo not shown) [Example 81, 3-(1,3-benzothiazol-2-yl)-1-(octahydro-1H-indol-1-yl)propan-1-one]
< 100	O=C(CCc1c[nH]c2ncccc12)N1CCCC2CCCCC21 (stereo not shown) [Example 84, 1-(octahydroquinolin-1(2H)-yl)-3-(1H-pyrrolo[2,3-b]pyridin-3-yl)propan-1-one]
> 250	O=C(CCc1cn(S(=O)(=O)c2ccccc2)c2ncccc12)N1CCCC2CCCCC21 (stereo not shown) [Example 85, 1-(octahydroquinolin-1(2H)-yl)-3-[1-(phenylsulfonyl)-1H-pyrrolo[2,3-b]pyridin-3-yl]propan-1-one]
< 100	CC1CCC2CCCCC2N1C(=O)CCc1c[nH]c2ncccc12 (stereo not shown) [Example 86, 1-(2-methyloctahydroquinolin-1(2H)-yl)-3-(1H-pyrrolo[2,3-b]pyridin-3-yl)propan-1-one]
< 100	Cn1cc(CCC(=O)N2CCCC3CCCCC32)c2cccnc21 (stereo not shown) [Example 87, 3-(1-methyl-1H-pyrrolo[2,3-b]pyridin-3-yl)-1-(octahydroquinolin-1 (2H)-yl)propan-1-one]
> 250	O=C(CCc1n[nH]c2ccccc12)N1CCCC2CCCCC21 (stereo not shown) [Example 88, 3-(1H-indazol-3-yl)-1-(octahydroquinolin-1(2H)-yl)propan-1-one]
150 to 200	Cn1nc(CCC(=O)N2CCCC3CCCCC32)c2ccccc21 (stereo not shown) [Example 89, 3-(1-methyl-1H-indazol-3-yl)-1-(octahydroquinolin-1(2H)-yl)propan-1-one]
< 100	O=C(CCc1c[nH]c2ccccc12)N1CCCC2CCCCC21 (stereo not shown) [Example 93, 3-(1H-indol-3-yl)-1-(octahydroquinolin-1(2H)-yl)propan-1-one]
150 to 200	CC(CC(=O)N1CCCC2CCCCC21)c1cn(C)c2ccccc12 (stereo not shown) [Example 94, 3-(1-methyl-1H-indol-3-yl)-1-(octahydroquinolin-1(2H)-yl)butan-1-one]
< 100	CC(C)C(CC(=O)N1CCCC2CCCCC21)c1c[nH]c2ccccc12 (stereo not shown) [Example 95, 3-(1H-indol-3-yl)-4-methyl-1-(octahydroquinolin-1(2H)-yl)pentan-1-one]
> 250	CC(=O)NC(Cc1c[nH]c2ccccc12)C(=O)N1CCCC2CCCCC21 (stereo not shown) [Example 96, N-[3-(1H-indol-3-yl)-1-(octahydroquinolin-1(2H)-yl)-1-oxopropan-2-yl]acetamide]
150 to 200	Cn1cc(C2CC2C(=O)N2CCCC3CCCCC32)c2ccccc21 (stereo not shown) [Example 97, [2-(1-methyl-1H-indol-3-yl)cyclopropyl](octahydroquinolin-1(2H)-yl)methanone]
> 250	N#CC(Cc1c[nH]c2ccccc12)C(=O)N1CCCC2CCCCC21 (stereo not shown) [Example 98, 2-(1H-indol-3-ylmethyl)-3-(octahydroquinolin-1(2H)-yl)-3-oxopropanenitrile]
> 250	O=C(COc1c[nH]c2ccccc12)N1CCCC2CCCCC21 (stereo not shown) [Example 99, 2-(1H-indol-3-yloxy)-1-(octahydroquinolin-1(2H)-yl)ethanone]
> 250	CC(Oc1cn(C)c2ccccc12)C(=O)N1CCCC2CCCCC21 (stereo not shown) [Example 100, 2-[(1-methyl-1H-indol-3-yl)oxy]-1-(octahydroquinolin-1(2H)-yl)propan-1-one]
> 250	O=C(CC(O)(c1c[nH]c2ccccc12)C(F)(F)F)N1CCCC2CCCCC21 (stereo not shown) [Example 108, 4,4,4-trifluoro-3-hydroxy-3-(1H-indol-3-yl)-1-(octahydroquinolin-1(2H)-yl)butan-1-one]
